For data set [1], the system named is rat P-gp. Description: Substrate activity at rat P-gp assessed as efflux ratio at 1 uM. In kind it is ADME. The conditions noted are these: not told.
Data set [2] concerns the target T1, Ceramide glucosyltransferase (Homo sapiens, UniProt Q16739).
T1 sequence (Q16739 whole entry): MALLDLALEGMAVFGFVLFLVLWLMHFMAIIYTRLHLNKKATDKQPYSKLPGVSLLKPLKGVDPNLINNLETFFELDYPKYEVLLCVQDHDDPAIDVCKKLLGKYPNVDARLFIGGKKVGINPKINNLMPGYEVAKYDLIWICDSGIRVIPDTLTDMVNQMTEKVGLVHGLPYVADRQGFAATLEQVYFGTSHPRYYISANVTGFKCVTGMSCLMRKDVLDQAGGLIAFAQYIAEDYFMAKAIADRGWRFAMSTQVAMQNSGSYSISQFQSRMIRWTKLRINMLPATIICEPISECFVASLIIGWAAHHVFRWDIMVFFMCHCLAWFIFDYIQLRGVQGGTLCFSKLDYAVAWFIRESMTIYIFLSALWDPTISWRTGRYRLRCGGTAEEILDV
Description: Inhibition of GCS in human fibroblast. Format: cell-based.

Data set [3] has as its target T2, mouse BCRP (ABCG2) (Mus musculus, UniProt Q7TMS5).
T2 sequence (Q7TMS5 whole entry): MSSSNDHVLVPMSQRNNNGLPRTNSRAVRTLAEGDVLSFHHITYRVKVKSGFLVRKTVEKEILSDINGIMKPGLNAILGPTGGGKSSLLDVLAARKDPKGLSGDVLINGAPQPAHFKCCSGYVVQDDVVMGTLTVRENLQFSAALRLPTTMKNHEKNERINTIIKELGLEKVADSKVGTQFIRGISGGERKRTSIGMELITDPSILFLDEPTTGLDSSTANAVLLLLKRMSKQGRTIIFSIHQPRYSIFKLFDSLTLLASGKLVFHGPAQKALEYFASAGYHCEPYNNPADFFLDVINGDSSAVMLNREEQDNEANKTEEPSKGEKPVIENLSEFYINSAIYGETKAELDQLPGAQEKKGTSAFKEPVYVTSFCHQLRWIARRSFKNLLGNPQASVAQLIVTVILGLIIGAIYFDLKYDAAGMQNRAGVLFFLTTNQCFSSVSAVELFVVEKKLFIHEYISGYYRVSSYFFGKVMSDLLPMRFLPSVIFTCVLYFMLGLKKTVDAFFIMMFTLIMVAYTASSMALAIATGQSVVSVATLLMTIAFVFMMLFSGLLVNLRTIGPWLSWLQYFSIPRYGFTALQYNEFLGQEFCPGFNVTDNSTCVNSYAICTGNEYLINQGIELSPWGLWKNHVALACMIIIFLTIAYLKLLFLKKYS
Kind of data set: Substrate activity at mouse BCRP assessed as efflux ratio at 1 uM. In kind it is ADME. The following applies: not told.

For data set [4], the target named is T2, mouse BCRP (ABCG2). Kind of data set: Substrate activity at mouse BCRP assessed as apparent permeability at 1 uM. In kind it is ADME. The following applies: not told.
For data set [5], the target named is T3, 5-hydroxytryptamine receptor 3A (Homo sapiens, UniProt P46098).
T3 sequence (P46098 whole entry): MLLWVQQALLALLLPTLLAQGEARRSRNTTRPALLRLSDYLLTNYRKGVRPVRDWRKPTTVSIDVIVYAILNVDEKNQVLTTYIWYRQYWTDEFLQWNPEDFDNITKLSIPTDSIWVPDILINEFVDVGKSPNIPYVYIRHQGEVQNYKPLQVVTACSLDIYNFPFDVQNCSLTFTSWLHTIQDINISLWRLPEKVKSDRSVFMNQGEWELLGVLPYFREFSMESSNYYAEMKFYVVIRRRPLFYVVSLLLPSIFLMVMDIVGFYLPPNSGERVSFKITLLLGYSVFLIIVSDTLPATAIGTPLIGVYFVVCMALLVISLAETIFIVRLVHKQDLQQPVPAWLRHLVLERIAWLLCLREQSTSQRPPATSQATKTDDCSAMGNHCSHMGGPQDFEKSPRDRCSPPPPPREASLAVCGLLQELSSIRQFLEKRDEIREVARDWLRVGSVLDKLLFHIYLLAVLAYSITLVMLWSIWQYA
Description: Antagonist activity at human 5HT3A expressed in HEK293 cells incubated for 1 hr by FLIPR assay. In kind it is cell-based.

The species named for another data set is Homo sapiens. Kind of data set: Selectivity ratio of IC50 for human 5HT3A to IC50 for GCS (unknown origin).
Data set [6] in a line: Intrinsic clearance in rat at 5 to 10 mg/kg, po or 0.05 to 2 mg/kg, iv. In kind it is ADME, organism-based. The following applies: in vivo, dose 5-10 mg/kg.
Data set [7] can be described thus: Mean residence time in rat at 5 to 10 mg/kg, po or 0.05 to 2 mg/kg, iv. Format: ADME, organism-based. The following applies: in vivo, dose 5-10 mg/kg.
A short description of data set [8]: Bioavailability in rat at 5 to 10 mg/kg, po or 0.05 to 2 mg/kg, iv. Format: ADME, organism-based. The conditions noted are these: in vivo, dose 5-10 mg/kg.
Data set [9] concerns the target T1, Ceramide glucosyltransferase. Description: Inhibition of Glucosylceramide synthase (unknown origin) using C6-ceramide and UDP-glucose as substrate preincubated for 30 mins followed by substrate addition and measured after 2 hrs by UDP-Glo luminometer analysis.
For data set [10], the system named is rat P-gp. Kind of data set: Substrate activity at rat P-gp assessed as apparent permeability at 1 uM. In kind it is ADME. The conditions noted are these: not told.
Data set [11] in a line: Lipophilicity, logD of compound by HPLC method. In kind it is physicochemical.

Results on 16 molecules are retold here after ChEMBL document CHEMBL5223177, “Pyrazole Ureas as Low Dose, CNS Penetrant Glucosylceramide Synthase Inhibitors for the Treatment of Parkinson's Disease” (ACS Med Chem Lett, 2023).

The efflux ratio is a quotient of directional permeabilities that is used to spot active efflux. In general, IC50 refers to the concentration at which inhibition is half-maximal. Low values mean greater potency in that assay, high ones weaker potency in that assay. One may read the Papp as the rate of passage across a membrane or cell layer, normalised by area and donor concentration. One may read the MRT as the average time that molecules of a dose stay in the body. What is called bioavailability is dose-corrected exposure relative to a reference, in per cent. Lower therefore signals little systemic uptake. On to `O=C(N1CCN2CCC1CC2)n1nc(-n2cc(C(F)(F)F)cn2)c2c1[C@H]1C[C@H]1C2`, for which the efflux ratio at 1 µM is 2.2 in the data set on rat P-gp [1] and 0.8 at mouse BCRP (ABCG2) [3]. Further, the IC50 in data set [2] is 33 nM; in data set [5], 2470 nM. The Papp at 1 µM on mouse BCRP (ABCG2) [4] stood at 23 ×10⁻⁶ cm/s. Besides, in the data set filed under Homo sapiens, the Ratio IC50 came to 25000. In data set [6], this molecule displayed a CL of 85 mL/min/kg. This molecule had an MRT in data set [7] of 8.2 h. The same molecule gave a bioavailability in data set [8] of 67%.
A word on the logD: it is the decadic logarithm of the distribution of all forms, ionised or not, between an organic phase and buffer at a given pH. Lower therefore signals lower lipophilicity. `O=C(N1CCN2CCC1CC2)n1nc(-c2ccc(F)c(Cl)c2)c2c1COCC2`: in [9], the IC50 is 1 nM. Also, the efflux ratio at 1 µM in the data set with rat P-gp [1] was found to be 1.7. Also, the Papp at 1 µM with rat P-gp [10] was found to be 24 ×10⁻⁶ cm/s. This molecule also came in with a logD in [11] of 2.8.
As to `O=C(N1CCN2CCC1CC2)n1nc(-n2cc(Cl)cn2)c2c1COCC2`, the efflux ratio at 1 µM in the data set with rat P-gp [1] was 4.4; at mouse BCRP (ABCG2) [3] it was 1.4. The IC50 in data set [2] was 37 nM; in data set [5] it was 585 nM. Moreover, the Papp at 1 µM on mouse BCRP (ABCG2) [4] came out at 32 ×10⁻⁶ cm/s. The Ratio IC50 in the data set filed under Homo sapiens stood at 96. The same molecule gave a CL in [6] of 120 mL/min/kg. Further, the MRT in data set [7] turned out to be 1.1 h.
`COc1ccc(-n2nc(C(=O)N3CCN4CCC3CC4)c3c2CCOC3)cc1`: in the data set on rat P-gp [10], the Papp at 1 µM amounted to 31 ×10⁻⁶ cm/s.
As to `O=C(c1nn(-c2ccc(F)c(Cl)c2)c2c1COCC2)N1CCN2CCC1CC2`, inhibition in data set [9] was half-maximal at 6 nM (IC50). Moreover, the efflux ratio at 1 µM with rat P-gp [1] is 19. The Papp at 1 µM in the data set with rat P-gp [10] amounted to 32 ×10⁻⁶ cm/s. The same molecule registered a pH-dependent lipophilicity (logD) in [11] of 1.9.
On to `O=C(N1CCN2CCC1CC2)n1nc(-n2cc(C(F)(F)F)cn2)c2c1CCOC2`, for which the efflux ratio at 1 µM in the data set on rat P-gp [1] was found to be 2.7; at mouse BCRP (ABCG2) [3], 1.2. Further, the IC50 is 32 nM in data set [2] and 7470 nM in [5]. Further, the Papp at 1 µM on mouse BCRP (ABCG2) [4] turned out to be 42 ×10⁻⁶ cm/s. In the data set filed under Homo sapiens, the Ratio IC50 was 2070. Besides, in data set [6], the CL was found to be 39 mL/min/kg. The molecule further had an MRT in [7] of 3.2 h.
As for `COc1ccc(-n2nc(C(=O)N3CCN(C)CC(F)C3)c3c2CCOC3)cc1` (racemic), half-maximal inhibition in data set [9] (IC50) was put at 12500 nM.
The same measure, in the same setting: for `CCN1CCCN(C(=O)c2nn(-c3ccc(OC)cc3)c3c2COCC3)CC1` the value was 7400 nM; for `COc1ccc(-n2nc(C(=O)N3CCCNCC3)c3c2CCOC3)cc1`, 690 nM.
Take `CC1(C)Cc2c(c(-c3ccc(F)cc3)nn2C(=O)N2CCN3CCC2CC3)CO1`: the efflux ratio at 1 µM in the data set on rat P-gp [1] was 8.5; at mouse BCRP (ABCG2) [3] it was 0.9. Moreover, the figures for the concentration for half-maximal inhibition (IC50) in data set [2] and in [5] were 32 nM and 4210 nM, respectively. For the same molecule, at mouse BCRP (ABCG2) [4], the apparent permeability coefficient (Papp) at 1 µM came to 31 ×10⁻⁶ cm/s. The Ratio IC50 in the data set listed under Homo sapiens is 470. The molecule also displayed a CL in data set [6] of 180 mL/min/kg. The molecule also returned an MRT in data set [7] of 2.6 h.
For the molecule `COc1ccc(-n2nc(C(=O)N3CCCN(C)CC3)c3c2CCOC3)cc1`, the figures for the IC50 in data set [9] and in data set [2] were 1000 nM and 180 nM, respectively. Also, the efflux ratio at 1 µM with rat P-gp [1] came to 5.
As to `COc1ccc(-n2nc(C(=O)N3CCNCC(CO)C3)c3c2CCOC3)cc1` (racemic), the Papp at 1 µM with rat P-gp [10] was 6 ×10⁻⁶ cm/s.
Regarding `O=C(N1CCN2CCC1CC2)n1nc(-c2ccc(C(F)(F)F)cc2)c2c1COCC2`, the efflux ratio at 1 µM in the data set with rat P-gp [1] was determined as 3.2; on mouse BCRP (ABCG2) [3] it was 1.2. The IC50 in data set [2] stood at 21 nM; in [5], 1590 nM. Besides, on mouse BCRP (ABCG2) [4], the Papp at 1 µM came to 33 ×10⁻⁶ cm/s. The Ratio IC50 in the data set filed under Homo sapiens was 647. This molecule gave a CL in data set [6] of 610 mL/min/kg. The molecule also displayed an MRT in data set [7] of 3.3 h.
In [9], `COc1ccc(-n2nc(C(=O)N3CC(c4cnc(C)n4C)C3)c3c2CCOC3)cc1` gave an IC50 greater than 28000 nM.
Turning to `O=C(N1CCN2CCC1CC2)n1nc(-n2cc(C(F)(F)F)cn2)c2c1CCC2`, the efflux ratio at 1 µM in the data set with rat P-gp [1] amounted to 1.7; at mouse BCRP (ABCG2) [3], 0.8. The half-maximal inhibitory concentration (IC50) was 32 nM in [2] and 2190 nM in [5]. Also, the Papp at 1 µM on mouse BCRP (ABCG2) [4] was 24 ×10⁻⁶ cm/s. Besides, the Ratio IC50 in the data set listed under Homo sapiens came to 5480. In addition, the CL in data set [6] turned out to be 89 mL/min/kg. The mean residence time (MRT) in data set [7] was 5.9 h. This molecule yielded a bioavailability in data set [8] of 25%.
With `COc1ccc(-c2nn(C(=O)N3CCN4CCC3CC4)c3c2CCOC3)cc1`, the efflux ratio at 1 µM is 4.4 in the data set with rat P-gp [1] and 1.4 at mouse BCRP (ABCG2) [3]. Also, the half-maximal inhibitory concentration (IC50) in [2] was 35 nM; in data set [5], 338 nM. Further, at mouse BCRP (ABCG2) [4], the apparent permeability (Papp) at 1 µM worked out at 32 ×10⁻⁶ cm/s. Also, the Ratio IC50 in the data set filed under Homo sapiens was determined as 164. In data set [6], this molecule displayed a CL of 3510 mL/min/kg. In [7], this molecule displayed an MRT of 0.7 h.
